Results as given in paper PMC9060465 (Proceedings of the National Academy of Sciences of the …, 2022).
Where a SMILES comes first, the peptide text is derived from it. [ ]: non-standard residue; d: D form. Aib = CC(C)(N)C(=O)O

Key:
[1] = molecular target: T1, GLP-1R (Homo sapiens, UniProt P43220); test: GLP-1R low density cAMP accumulation in HEK293 cells; assay type: cell-based; design: expressed in transfected cells; host or cells: HEK293; conditions: for GLP-1R Low Density cAMP Top: efficacy (% Top), normalized to GLP-1(7-36), (SEM)
Experimental: (§1) Fig. 4. […] (B) Ligand-induced GTPγS binding of Gαs was performed using the GIPR-expressing membranes. […] (C) Agonist-stimulated cAMP production was measured in human GIPR expressing HEK293 cells. […] (E) Ligand-induced GTPγS binding of Gαs was performed using the GLP-1R-expressing membranes. […] (F) Agonist-stimulated cAMP production was measured in human GLP-1R-expressing HEK293 cells. […] Data presented are representative of n ≥ 3 independent experiments. Summarized data are shown in SI Appendix, Table 2. log M; log Molar.
(§2) We note that the albumin-binding propensity of fatty acid-modified peptides can confound a pharmacological comparison of molecules, given the common use of albumin and serum as nonspecific blocking agents in biological assays. Therefore, to obviate this, entirely albumin-free assays supplemented with bovine casein or bacitracin were used to prevent nonspecific binding ([10]). […]
(§3) Middle Panel: The affinity (Ki) of ligands for the GLP-1R was […]
(§4) Functional potency (EC50) and efficacy (% Top) of ligands to induce Gα s-GTPγS binding and cAMP accumulation in HEK293 cells expressing GLP-1R were determined. The equilibrium affinity (KD) of ligands for the immobilized ectodomain of the GLP-1R were quantified by surface plasmon resonance. […]
(§5) SPR data were analyzed using T200 evaluation software (Cytiva). All data are presented as geometric means with SEM and n values according to established practices. ND, not determined. NA, not applicable.
Target sequence in this assay (P43220 24-463): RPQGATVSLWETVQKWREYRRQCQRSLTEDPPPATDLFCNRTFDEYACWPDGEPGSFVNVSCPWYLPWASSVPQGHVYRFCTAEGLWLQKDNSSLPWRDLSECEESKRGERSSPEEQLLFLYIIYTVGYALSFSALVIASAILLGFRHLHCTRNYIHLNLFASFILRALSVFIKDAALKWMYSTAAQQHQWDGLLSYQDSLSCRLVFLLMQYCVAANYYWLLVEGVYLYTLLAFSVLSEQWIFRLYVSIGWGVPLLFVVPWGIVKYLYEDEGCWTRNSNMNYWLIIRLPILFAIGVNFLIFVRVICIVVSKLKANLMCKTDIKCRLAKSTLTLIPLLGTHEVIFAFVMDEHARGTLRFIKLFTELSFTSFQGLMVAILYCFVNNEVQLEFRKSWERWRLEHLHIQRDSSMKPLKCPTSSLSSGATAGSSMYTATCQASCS

[2] = molecular target: T2, human GIPR (Homo sapiens, UniProt P48546); test: GIPR low density cAMP accumulation in HEK293 cells; assay type: cell-based
T2 construct: expressed in transfected cells; host or cells: HEK293
T2 sequence (P48546 22-466): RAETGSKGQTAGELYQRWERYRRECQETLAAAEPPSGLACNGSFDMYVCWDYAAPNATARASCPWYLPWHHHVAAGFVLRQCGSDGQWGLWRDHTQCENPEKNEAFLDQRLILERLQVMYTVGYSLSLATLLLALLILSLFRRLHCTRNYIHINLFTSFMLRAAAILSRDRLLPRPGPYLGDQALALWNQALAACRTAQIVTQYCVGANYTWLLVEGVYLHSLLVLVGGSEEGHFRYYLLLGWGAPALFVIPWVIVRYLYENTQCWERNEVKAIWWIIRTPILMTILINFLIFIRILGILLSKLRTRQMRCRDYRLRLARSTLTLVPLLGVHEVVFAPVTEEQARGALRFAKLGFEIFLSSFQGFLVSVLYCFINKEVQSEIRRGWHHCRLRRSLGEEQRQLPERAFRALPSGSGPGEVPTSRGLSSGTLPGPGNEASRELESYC
Experimental: as §1
(§6) We note that the albumin-binding propensity of fatty acid-modified peptides can confound a pharmacological comparison of molecules, given the common use of albumin and serum as nonspecific blocking agents in biological assays. Therefore, to obviate this, entirely albumin-free assays supplemented with bovine casein or bacitracin were used to prevent nonspecific binding ([10]).
(§7) Functional potency (EC50)
(§8) and efficacy (% Top) of ligands to induce Gα s -GTPγS binding and cAMP accumulation in HEK293 cells expressing GIPR were determined. The equilibrium affinity (KD) of
(§9) ligands for the immobilized ectodomain of the GIPR were quantified by surface plasmon resonance. […]
(§10) SPR data were analyzed using T200 evaluation software (Cytiva). All data are presented as geometric means with SEM and n values
(§11) according to established practices. ND, not determined. NA, not applicable.

[3] = molecular target: T2, human GIPR; test: GIPR Gαs [35S]GTPγS binding, GIPR-expressing membranes; assay type: biochemical
Experimental: as §1, §6, §7, §8, §9, §10, §11

[4] = molecular target: T1, GLP-1R; test: GLP-1R Gαs [35S]GTPγS binding, GLP-1R-expressing membranes; assay type: biochemical; design: expressed in transfected cells; host or cells: HEK293; conditions: for GLP-1R GTPγS Recruitment Top: efficacy (% Top), normalized to GLP-1(7-36), (SEM)
Experimental: as §1, §2, §3, §4, §5
Target sequence in this assay (P43220 24-463): as the sequence (P43220 24-463) above

[5] = molecular target: T1, GLP-1R; test: Ligand-induced GLP-1R internalization, SNAP-GLP-1R HEK293 cells; assay type: cell-based; conditions: for GLP-1R Internalization Top: efficacy (% Top), percent internalization compared to maximal GLP-1, (SEM)
Target sequence in this assay (P43220 24-463): as the sequence (P43220 24-463) above

[6] = molecular target: T1, GLP-1R; test: GRK2 recruitment to the GLP-1R, NanoBRET; assay type: cell-based; design: expressed in transfected cells; host or cells: freestyle HEK cells; conditions: for GLP-1R GRK2 Recruitment Top: efficacy (% Top), relative to maximal GLP-1, (SEM)
Experimental: After 48 h, transfected cells were incubated in phosphate-buffered saline (PBS) containing 0.1% (wt/vol) bovine casein and varying concentrations of the ligands. […]
The potency (EC50) and efficacy (% Top) for ligands to induce GLP-1R Internalization were
determined using diffusion-enhanced resonance energy transfer.
relative efficacy for NanoBRET assays. SPR data were analyzed using T200 evaluation software (Cytiva). All data are presented as geometric means with SEM and n values
as §11
Target sequence in this assay (P43220 24-463): as the sequence (P43220 24-463) above
Target sequence in this assay (P25098 whole entry partner): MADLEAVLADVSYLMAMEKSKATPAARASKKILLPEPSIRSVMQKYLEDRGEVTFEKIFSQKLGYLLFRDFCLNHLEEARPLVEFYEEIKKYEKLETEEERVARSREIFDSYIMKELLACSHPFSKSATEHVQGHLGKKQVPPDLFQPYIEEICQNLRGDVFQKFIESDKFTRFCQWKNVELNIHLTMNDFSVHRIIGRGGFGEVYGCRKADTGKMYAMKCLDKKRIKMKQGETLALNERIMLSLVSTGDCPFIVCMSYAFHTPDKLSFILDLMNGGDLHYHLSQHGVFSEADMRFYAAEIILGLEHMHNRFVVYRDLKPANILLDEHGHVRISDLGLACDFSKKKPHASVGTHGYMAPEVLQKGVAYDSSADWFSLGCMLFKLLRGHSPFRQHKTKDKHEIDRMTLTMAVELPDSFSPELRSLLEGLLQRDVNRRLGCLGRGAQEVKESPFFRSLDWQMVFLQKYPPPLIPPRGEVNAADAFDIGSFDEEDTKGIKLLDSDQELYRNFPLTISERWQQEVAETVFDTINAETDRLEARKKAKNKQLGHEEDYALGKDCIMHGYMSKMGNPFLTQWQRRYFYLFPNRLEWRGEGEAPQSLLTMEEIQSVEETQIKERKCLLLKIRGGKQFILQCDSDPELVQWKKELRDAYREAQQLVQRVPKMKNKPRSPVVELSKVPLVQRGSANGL

[7] = molecular target: T1, GLP-1R; test: β-arrestin 1 recruitment to the GLP-1R, NanoBRET; assay type: cell-based; design: expressed in transfected cells; conditions: efficacy (% Top), relative efficacy to GLP-1; (SEM)
Experimental: Functional potency (EC50) […]
and efficacy (% Top) of ligands to induce Gα s -GTPγS binding and cAMP accumulation in HEK293 cells expressing GIPR were determined. The equilibrium affinity (KD) of ligands for the immobilized ectodomain of the GIPR were quantified by surface plasmon resonance. Middle Panel: The affinity (Ki) of ligands for the GLP-1R was […]
as §4
Target sequence in this assay (P43220 24-463): as the sequence (P43220 24-463) above
Target sequence in this assay (P49407 whole entry partner): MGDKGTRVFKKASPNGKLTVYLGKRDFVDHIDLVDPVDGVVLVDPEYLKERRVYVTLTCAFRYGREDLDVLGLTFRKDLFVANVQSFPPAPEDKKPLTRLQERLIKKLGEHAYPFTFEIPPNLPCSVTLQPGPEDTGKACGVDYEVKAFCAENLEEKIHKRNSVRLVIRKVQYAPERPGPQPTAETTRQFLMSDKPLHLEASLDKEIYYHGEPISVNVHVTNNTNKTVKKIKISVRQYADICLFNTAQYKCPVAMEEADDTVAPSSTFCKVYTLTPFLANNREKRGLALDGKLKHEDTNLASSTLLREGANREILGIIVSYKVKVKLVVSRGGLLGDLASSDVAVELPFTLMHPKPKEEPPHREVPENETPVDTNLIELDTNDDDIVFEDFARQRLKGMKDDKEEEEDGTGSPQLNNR
recruitment to the GLP-1R were determined using the NanoBRET approach. The potency (EC50) and efficacy (% Top) for ligands to induce GLP-1R Internalization were determined using diffusion-enhanced resonance energy transfer. […]
relative efficacy for NanoBRET assays. SPR data were analyzed using T200 evaluation software (Cytiva). All data are presented as geometric means with SEM and n values according to established practices. ND, not determined. NA, not applicable.

[8] = efficacy (% Top), normalized to GIP(1-42), (SEM)

| Compound | EC50 ([1]; cAMP accumulation, HEK293 cells expressing GLP-1R, albumin-free, geometric mean (SEM, n)) | GLP-1R Low Density cAMP Top [1] | EC50 ([2]; cAMP accumulation, HEK293 cells expressing GIPR, albumin-free, geometric mean (SEM, n)) | GIPR Low Density cAMP Top [2, 8] | EC50 ([3]; Gαs-GTPγS binding, GIPR-expressing membranes, albumin-free, geometric mean (SEM, n), read-out: GIPR GTPγS Recruitment EC50) | GIPR GTPγS Recruitment Top [3, 8] | EC50 ([4]; Gαs-GTPγS binding, GLP-1R-expressing membranes, albumin-free, geometric mean (SEM, n), read-out: GLP-1R GTPγS Recruitment EC50) | GLP-1R GTPγS Recruitment Top [4] | EC50 ([5]; diffusion-enhanced resonance energy transfer, SNAP-GLP-1R HEK293 cells, 37 °C, geometric mean (SEM, n)) | GLP-1R Internalization Top [5] | EC50 ([6]; NanoBRET, transfected freestyle HEK cells, PBS with 0.1% casein, geometric mean (SEM, n)) | GLP-1R GRK2 Recruitment Top [6] | GLP-1R β-Arr1 Recruitment Top [7] | efficacy at inducing internalization of the GLP-1R, in words ([5]; SNAP-tagged receptor in HEK293 cells, representative of n≥3) |
| --- | --- | --- | --- | --- | --- | --- | --- | --- | --- | --- | --- | --- | --- | --- |
| CC[C@H](C)[C@H](NC(=O)[C@H](CC(C)C)NC(=O)[C@H](Cc1c[nH]c2ccccc12)NC(=O)[C@H](CCC(N)=O)NC(=O)[C@@H](NC(=O)[C@H](Cc1ccccc1)NC(=O)[C@H](C)NC(=O)[C@H](CCCCN)NC(=O)[C@H](CCC(N)=O)NC(=O)[C@H](C)NC(=O)[C@@H](NC(=O)[C@H](CCCCN)NC(=O)[C@H](CC(=O)O)NC(=O)[C@H](CC(C)C)NC(=O)C(C)(C)NC(=O)[C@@H](NC(=O)[C@H](CO)NC(=O)[C@H](Cc1ccc(O)cc1)NC(=O)[C@H](CC(=O)O)NC(=O)[C@H](CO)NC(=O)[C@@H](NC(=O)[C@H](Cc1ccccc1)NC(=O)[C@@H](NC(=O)CNC(=O)[C@H](CCC(=O)O)NC(=O)C(C)(C)NC(=O)[C@@H](N)Cc1c[nH]cn1)[C@@H](C)O)[C@@H](C)O)[C@@H](C)CC)[C@@H](C)CC)C(C)C)C(=O)N[C@@H](C)C(=O)NCC(=O)NCC(=O)N1CCC[C@H]1C(=O)N[C@@H](CO)C(=O)N[C@@H](CO)C(=O)NCC(=O)N[C@@H](C)C(=O)N1CCC[C@H]1C(=O)N1CCC[C@H]1C(=O)N1CCC[C@H]1C(=O)N[C@@H](CO)C(N)=O [Tzp ∆C20,Y1H] (H-H[Aib]EGTFTSDYSI[Aib]LDKIAQKAFVQWLIAGGPSSGAPPPS-NH2) | 0.163 nM | 111 (5) % | 0.682 nM | 80.9 (3.4) % | 0.273 nM | 31.4 (6.6) % | 0.239 nM | 88.9 (3.9) % | 2.13 nM | 101 (6) % | 3.08 nM | 84.2 (1.5 ) % | 74.6 (2.2) % | – |
| CC[C@H](C)[C@H](NC(=O)[C@H](CC(C)C)NC(=O)[C@H](Cc1c[nH]c2ccccc12)NC(=O)[C@H](CCC(N)=O)NC(=O)[C@@H](NC(=O)[C@H](Cc1ccccc1)NC(=O)[C@H](C)NC(=O)[C@H](CCCCNC(=O)COCCOCCNC(=O)COCCOCCNC(=O)CC[C@H](NC(=O)CCCCCCCCCCCCCCCCCCC(=O)O)C(=O)O)NC(=O)[C@H](CCC(N)=O)NC(=O)[C@H](C)NC(=O)[C@@H](NC(=O)[C@H](CCCCN)NC(=O)[C@H](CC(=O)O)NC(=O)[C@H](CC(C)C)NC(=O)C(C)(C)NC(=O)[C@@H](NC(=O)[C@H](CO)NC(=O)[C@H](Cc1ccc(O)cc1)NC(=O)[C@H](CC(=O)O)NC(=O)[C@H](CO)NC(=O)[C@@H](NC(=O)[C@H](Cc1ccccc1)NC(=O)[C@@H](NC(=O)CNC(=O)[C@H](CCC(=O)O)NC(=O)C(C)(C)NC(=O)[C@@H](N)Cc1ccc(O)cc1)[C@@H](C)O)[C@@H](C)O)[C@@H](C)CC)[C@@H](C)CC)C(C)C)C(=O)N[C@@H](C)C(=O)NCC(=O)NCC(=O)N1CCC[C@H]1C(=O)N[C@@H](CO)C(=O)N[C@@H](CO)C(=O)NCC(=O)N[C@@H](C)C(=O)N1CCC[C@H]1C(=O)N1CCC[C@H]1C(=O)N1CCC[C@H]1C(=O)N[C@@H](CO)C(N)=O [Tzp, tirzepatide] | – | 99.5 (4.5) % | – | – | – | – | – | 43.9 (1.7) % | – | 41.6 (3.0) % | – | 24.7 (2.8 ) % | 7.55 (0.93) % | – |
| semaglutide [reference compound] | – | – | – | – | – | – | – | – | – | – | – | – | – | equally efficacious |
